Source: publication PMC3726336, “Product inhibition of cellulases studied with ^14C-labeled cellulose substrates” (Biotechnology for Biofuels, 2013)
Where two headings read alike, the source gives them in different places.

Key:
[1] = molecular target: AtCel7A (Acremonium thermophilum, UniProt A7WNT9); assay: Inhibition of synergistic hydrolysis of 14C-BC by AtCel7A (supplemented with EG TrCel5A); format: biochemical; conditions: 14C-BC substrate, read-out: IC50 for cellobiose
Experimental: To study the cellobiose inhibition of GH7 CBHs, the synergistic hydrolysis of ^14C-BC in the presence of added cellobiose was followed (Figure 3, Additional file 1: Figures S1 and S2). Because the cellobiose inhibition of the EG TrCel5A is much weaker than that of GH7 CBHs, the inhibition of synergistic hydrolysis apparently reflects the inhibition of CBH. The strength of cellobiose inhibition was analyzed using plots of (DCB/DCB=0) versus [cellobiose], where DCB and DCB=0 represent the degree of conversion of ^14C-BC in the presence and absence of cellobiose, respectively (Figure 4, Additional file 1: Figure S3). In the case of experiments without added cellobiose, the reactions were provided with N188BG to prevent the inhibition of the CBH by the cellobiose released during hydrolysis. Experiments with no added cellobiose and without BG were also conducted. […] Therefore, the concentration of the cellobiose released during hydrolysis was added to the concentration of externally supplied cellobiose in generating the plots in Figure 4 and Additional file 1: Figure S3. For the calculation of IC50 values, the data were first fitted to hyperbolae:
where [CB] is the concentration of cellobiose; [^14CBC] is the concentration of ^14C-BC used in the experiment; and C1, C2 and H are empirical constants. Equation 5 differs from Equation 1 by the presence of constant H. H was included to improve the fit and is a constant that accounts for the background radioactivity (the degree of conversion that is independent of CBH). The degree of conversion resulting from the activity of the EG was measured in a separate experiment (Additional file 1: Figure S4) and was subtracted from the degree of conversion resulting from the synergistic hydrolysis. Thus, in the case of complete inhibition, H should have a value of zero. […] Provided with the values of C1, C2 and H, the value of IC50 was calculated as follows: […]
Using the time course data measured in the presence and absence of cellobiose, the IC50 values were first found separately for each time point (Figure 4A). […]

[2] = molecular target: TaCel7A (Thermoascus aurantiacus, UniProt A7WNU2); assay: Cellobiose inhibition of MUL hydrolysis by TaCel7A; format: biochemical; conditions: MUL substrate (5 μM)
Source text: The cellobiose inhibition of GH7 CBHs is most often studied on low-Mw model substrates. However, it has been shown that the inhibition of CBHs acting on low-Mw substrates appears to be much stronger than that on cellulose substrates. The Ki values for cellobiose inhibition of GH7 CBHs measured on low-Mw substrates are in the micromolar range [44, 51, 52], whereas those measured on cellulose are in the low- to high-millimolar range [28, 31, 32]. […] Unfortunately, the inhibition of this enzyme on cellulose has not been studied. We also studied the cellobiose inhibition of GH7 CBHs acting on MUL. The initial rates of MUL hydrolysis measured in the presence and absence of added cellobiose were first analyzed according to Equation 1, and the IC50 values were found using Equation 2. […] The inhibition of MUL hydrolysis is attributable to the binding of cellobiose to the product sites (+1/+2) of TrCel7A [52]. […]
For the inhibition of enzyme acting on the low-Mw substrate, the initial rates of the hydrolysis of MUL in the presence and absence of added cellobiose were followed. […] Reactions were stopped by the addition of NH3 (final concentration 0.1 M), and the released 4-methylumbelliferone was quantified by fluorescence using excitation and emission wavelengths of 360 nm and 450 nm, respectively.

[3] = molecular target: Cel7A from Trichoderma harzianum; set-up: method as in PMID 23114223; conditions: hydrolysis of chloro-nitrophenyl lactoside; read-out: Ki value for cellobiose inhibition; cited from earlier work

Chain of AtCel7A (A7WNT9 entry or part of it): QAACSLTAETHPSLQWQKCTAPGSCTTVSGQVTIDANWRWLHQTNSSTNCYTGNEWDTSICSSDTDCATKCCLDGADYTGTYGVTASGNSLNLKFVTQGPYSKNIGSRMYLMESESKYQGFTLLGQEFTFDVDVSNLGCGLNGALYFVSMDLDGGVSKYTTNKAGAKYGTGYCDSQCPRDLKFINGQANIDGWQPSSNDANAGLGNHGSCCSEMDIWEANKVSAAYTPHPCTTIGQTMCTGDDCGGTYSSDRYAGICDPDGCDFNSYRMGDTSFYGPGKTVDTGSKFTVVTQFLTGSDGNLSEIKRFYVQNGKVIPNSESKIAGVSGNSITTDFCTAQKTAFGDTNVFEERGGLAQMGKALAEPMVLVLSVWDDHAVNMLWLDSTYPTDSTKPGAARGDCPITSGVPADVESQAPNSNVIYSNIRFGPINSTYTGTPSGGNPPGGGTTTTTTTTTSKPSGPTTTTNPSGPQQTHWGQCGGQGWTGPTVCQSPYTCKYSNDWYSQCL
Chain of TaCel7A (A7WNU2 entry or part of it): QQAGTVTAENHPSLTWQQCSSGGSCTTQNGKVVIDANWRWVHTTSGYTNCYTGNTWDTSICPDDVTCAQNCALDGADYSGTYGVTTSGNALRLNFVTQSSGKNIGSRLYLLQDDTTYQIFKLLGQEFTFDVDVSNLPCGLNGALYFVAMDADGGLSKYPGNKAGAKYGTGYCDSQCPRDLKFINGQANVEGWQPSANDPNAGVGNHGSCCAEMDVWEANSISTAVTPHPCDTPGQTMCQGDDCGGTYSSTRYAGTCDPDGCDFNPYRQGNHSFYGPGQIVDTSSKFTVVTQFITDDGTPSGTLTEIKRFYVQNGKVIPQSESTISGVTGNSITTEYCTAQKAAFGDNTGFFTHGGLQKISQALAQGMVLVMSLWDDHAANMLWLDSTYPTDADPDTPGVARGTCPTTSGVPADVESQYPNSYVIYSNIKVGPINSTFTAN

`O=C[C@H](O)[C@@H](O)[C@H](O[C@@H]1O[C@H](CO)[C@@H](O)[C@H](O)[C@H]1O)[C@H](O)CO` [cellobiose, Cellobiose] gave an IC50 ([1]; 25°C, IC50 decreased with hydrolysis time) of 190 ± 100 µM, an IC50 ([1]; 35°C) of 440 ± 100 µM and an IC50 ([1]; 50°C, IC50 increased with hydrolysis time) of 2120 ± 1400 µM. The Ki ([2]; 35°C) was 176 µM, the Ki ([2]; 50°C) was 355 µM and the Ki [3] was 7200 µM.
